The values that follow come from patent publication US20200024285A1, “NOVEL CHROMONE OXIME DERIVATIVE AND ITS USE AS ALLOSTERIC MODULATOR OF METABOTROPIC GLUTAMATE RECEPTORS” (Prexton Therapeutics SA, priority 2014, published 2020).

Read-outs that look alike come from different tables or passages of the source.

The nature of data set [1]: solubility in water. The data set is classed as physicochemical. The conditions noted are these: as hydrochloride salt.
Data set [2] addresses human mGluR4 (Homo sapiens, UniProt Q14833). The data set can be described thus: calcium assay for agonistic and/or positive allosteric modulator activity on human mGluR4. The data set is classed as cell-based. As to the method: The compound of formula (I) according to the invention (i.e., PXT002331) was tested for its agonistic and/or positive allosteric modulator activity on human mGluR4 using the calcium assay described in Example 171 of WO 2011/051478.

Data set [3] can be described thus: in vivo pharmacokinetics in male Sprague-Dawley rats, plasma and brain. The conditions noted are these: rat; for Kp at 1.5 h: brain, T = 1.5 h, read-out: Brain/Plasma ratio (T = 1.5 h); for Kp at 1.5 h / AUC(0-inf): po. The protocol:
PXT002331 and PXT001858 were administered per os (p.o.) at 10 mg/kg to male Sprague-Dawley rats. Volume of administration was 10 ml/kg. In parallel, PXT002331 was also administered intravenously (i.v.) at 1 mg/kg, with a volume of administration of 2 ml/kg. Blood samples (200 μl) were collected at time ranging from 15 minutes to 24 hours for the p.o. administration and from 5 minutes to 24 hours for the i.v. administration in ice-cold tubes containing 0.2% K2EDTA. Tubes were centrifuged at 10,000 rpm for 5 minutes at 4° C. The plasma (supernatant) was separated in another tube and stored at −80° C. until analysis. Two groups of 3 animals were used for each route of administration: in one group, blood samples were collected to determine the kinetics of plasma exposure over a 24-hour period, and in the second group, blood and brain were collected at one terminal time point (0.5, 1.0, 1.5, 2.0, 4.0 hours) to determine the kinetics of brain exposure and brain/plasma ratio.
The respective parent compound (free base) was analysed in plasma samples and in brain homogenate using a LC-MS/MS method. Concentrations are expressed in ng/ml of plasma or in ng/g of brain tissue.
(§1) Despite their similar oral absorption, PXT002331 has a higher brain/plasma ratio (6.5 versus 2.0 at T=1.5 h; see FIG. 4) leading to a 3-fold improvement in the brain AUC when compared to PXT001858. A posteriori, one potential hypothesis might rely on the difference of phase II conjugation in the intestine and liver during oral absorption. […] Nonetheless, this difference observed in vitro cannot by itself explain the unexpected advantageous PK results obtained with PXT002331. The results obtained in these experiments are furthermore summarized in Tables 1 to 3 below and in FIGS. 1 to 4.

Data set [4] can be described thus: plasma protein binding. The data set is classed as in vitro ADME. Conditions: read-out: plasma protein binding, free fraction.
The test system of data set [5] is UGT (UDP-Glucuronosyl transferase). Kind of data set: in vitro glucuronidation in rat liver microsomes. The data set is classed as in vitro ADME. Conditions: in vitro in the presence of UGT. As to the method: as §1
Background: Microsomes from liver hold many membrane-bound enzymes, among them those of drug oxidation.

Data set [6] is described as follows: phase I metabolic stability, CL (r). The data set is classed as in vitro ADME. Conditions: rat. As to the method: (§2) The in vitro ADME profile of PXT002331 was also very similar with reference to phase I metabolic stability: CL (h/r): 55/101 μl/min/mg protein and intestinal absorption: CaCo-2 (A-B, pgp): 4.11.0.10-6 cm/s, no efflux.
In data set [7] the test system is MPTP macaque model of Parkinson's disease. Kind of data set: MPTP macaque model of Parkinson's disease. The class given is in vivo, Macaca fascicularis. As to the method:
FIGS. 5A-F: Evaluation of the anti-parkinsonian efficacy of PXT002331 in the 1-methyl-4-phenyl-1,2,3,6-tetrahydropyridine (MPTP) macaque model of Parkinson's disease (see Example 3). (A) PXT002331 as a stand-alone treatment; oral administration twice a day during 4 days, assessment of parkinsonian scores at day 4; data are mean+s.e.m. over 2 hours observation (n=7 per group; 1 of the 8 monkeys initially used was excluded); “Veh”=vehicle; “LD opt”=L-dopa optimal dose”; *=P<0.05 vs Veh; ***=P<0.001 vs Veh; statistical analysis: Friedman followed by Dunn's. (B) Combined treatment using PXT002331 (25 mg/kg)+low dose of L-dopa (4-9 mg/kg)−parkinsonism time course; oral administration twice a day during 4 days, assessment at day #4; L-dopa optimal dose (“LDopt”): >20 mg/kg; L-dopa suboptimal dose (“LDso”): 4-9 mg/kg; combined administration of L-dopa (suboptimal dose) and PXT002331: twice a day/4 days. […] (D) Combined treatment using PXT002331+low dose of L-dopa−dose-response evaluation for different doses of PXT002331; assessment of parkinsonian scores at day 4; “Veh”=vehicle; “low LD”=low dose of L-dopa; “LD opt”=optimal dose of L-dopa; *=P<0.05 vs low LD; statistical analysis: non-parametric one-way repeated, measures ANOVA (Friedman's test), followed by Dunn's multiple comparison; N=7. (E) Computerized locomotor activity in early-stage PD monkey model for PXT002331 in combination with L-dopa (low dose or optimal dose) upon oral administration; *=P<0.05 vs vehicle; **=P<0.01 vs vehicle; ***=P<0.001 vs vehicle; statistical analysis: Friedman followed by Dunnett's; N=5 (6 monkeys/1 excluded). (F) Combined treatment using PXT002331+optimal dose of L-dopa−disability score and dyskinesia score. The anti-parkinsonian efficacy of the compound of formula (I) according to the present invention (i.e., PXT002331) was evaluated in the 1-methyl-4-phenyl-1,2,3,6-tetrahydropyridine (MPTP) macaque model of Parkinson's disease (using macaques of the species Macaca fascicularis), which reproduces most of the clinical and pathological hallmarks of Parkinson's disease and is considered a “gold standard” (see Porras G et al., Cold Spring Harb Perspect Med., 2(3):a009308, 2012 and references cited therein for a general description of the MPTP model). […] In this experiment, PXT002331 was orally administered twice a day during a period of 4 days, and the parkinsonian score was assessed at day 4 over 2 hours of observation (data are mean values+standard error of the mean (s.e.m.); n=7 monkeys per group). The anti-parkinsonian efficacy of PXT002331 (25 mg/kg) was further evaluated in combination with low (suboptimal) doses of L-dopa (levodopa; 4-9 mg/kg) (see FIGS. 5B and 5C). Doses were orally administered twice a day during 4 days, and assessment of parkinsonian scores took place at day 4 (between 1 and 2 h after L-dopa administration, i.e., between 2 and 3 h after PXT002331 administration). […] The results of a dose-response evaluation of the combination of PXT002331 (at doses from 2 mg/kg to 100 mg/kg) with L-dopa (low dose) are shown in FIG. 5D (the assessment of parkinsonian scores took place at day 4). […] In this experiment, each monkey was equipped with a detector of movements and signals were collected with 24 light beams and a video track recorder in order to descriminate all types of movements. The locomotor activity was measured during 1 hour.

The subject of data set [8] is CaCo-2. Kind of data set: intestinal absorption CaCo-2 (A-B, pgp). The class given is in vitro ADME. The protocol:
as §2

Data set [9] can be described thus: phase I metabolic stability, CL (h). The class given is in vitro ADME. Conditions: human. The protocol: as §2
Where [10] appears, read: male, Sprague-Dawley, 10 mg/kg p.o.
The mark [11] stands for this setting: male, Sprague-Dawley, plasma, 10 mg/kg p.o.

Chain of human mGluR4 (Q14833 33-912): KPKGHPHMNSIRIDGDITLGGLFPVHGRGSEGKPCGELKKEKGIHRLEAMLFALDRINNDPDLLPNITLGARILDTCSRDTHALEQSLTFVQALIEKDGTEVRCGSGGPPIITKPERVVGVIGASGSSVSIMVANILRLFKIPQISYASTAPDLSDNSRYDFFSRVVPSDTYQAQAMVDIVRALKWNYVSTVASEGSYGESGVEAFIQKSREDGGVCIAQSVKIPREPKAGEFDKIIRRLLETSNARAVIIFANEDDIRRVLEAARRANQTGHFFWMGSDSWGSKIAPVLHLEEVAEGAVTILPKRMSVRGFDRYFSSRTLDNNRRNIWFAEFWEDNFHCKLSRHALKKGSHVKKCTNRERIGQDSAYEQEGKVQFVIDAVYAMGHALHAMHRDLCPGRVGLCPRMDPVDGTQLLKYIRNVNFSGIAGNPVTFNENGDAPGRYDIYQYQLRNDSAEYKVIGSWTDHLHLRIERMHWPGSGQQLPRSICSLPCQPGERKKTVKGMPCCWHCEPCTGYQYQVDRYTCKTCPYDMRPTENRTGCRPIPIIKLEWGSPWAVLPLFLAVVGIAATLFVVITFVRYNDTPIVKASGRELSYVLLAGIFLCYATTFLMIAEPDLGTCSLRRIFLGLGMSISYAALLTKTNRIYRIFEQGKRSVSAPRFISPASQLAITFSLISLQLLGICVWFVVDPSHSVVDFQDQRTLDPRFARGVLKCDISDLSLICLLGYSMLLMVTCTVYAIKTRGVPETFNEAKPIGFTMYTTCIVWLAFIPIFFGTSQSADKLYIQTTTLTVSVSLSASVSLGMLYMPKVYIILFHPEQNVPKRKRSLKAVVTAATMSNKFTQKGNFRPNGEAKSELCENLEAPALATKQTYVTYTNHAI

As to `O/N=c1\cc(-c2cc3sccc3cn2)oc2ccc(OCCN3CCOCC3)cc12` [PXT001858, reference compound], in data set [1], the solubility is over 10000 µg/mL. For the same molecule, in [2] (read-out: pEC50 on human mGluR4 (converted)), the EC50 was 36.3 nM. In addition, the Kp at 1.5 h in data set [3] (setting [10]) worked out at 2. The molecule also displayed an AUC(0-inf) in data set [3] (setting [11]) of 394 ng·h/mL. In [3] (10 mg/kg p.o.), the “Brain AUC inf” value stood at 838 ng·h/g and the “Cmax (Brain)” value stood at 521 ng/G tissue. The fraction unbound in data set [4] was under 0.01.
`ON=c1cc(-c2cc3sccc3cn2)oc2ccc(CCCN3CCOCC3)cc12` [PXT002331, 6-(3-morpholin-4-yl-propyl)-2-(thieno[3,2-c]pyridin-6-yl)-4H-chromen-4-one oxime]: the “level of glucuronidation compared to PXT001858” value in [5] is on record as “much lower level of glucuronidation”. In data set [6], this molecule gave a microsomal CLint of 101 µL/min/mg. The solubility in data set [1] is over 10000 µg/mL. For the same molecule, the EC50 in data set [2] (read-out: EC50 corresponding to pEC50 (converted)) is about 76 nM. In data set [7] (25 mg/kg p.o. + L-dopa 4-9 mg/kg, twice a day 4 days, day 4), the “parkinsonian score, combined with suboptimal dose of L-dopa vs L-dopa (suboptimal dose) alone” value is “considerable improvement in parkinsonian score”. Further, the “locomotor activity in combination with low or optimal dose of L-dopa” value in data set [7] (25 mg/kg p.o., early stage PD monkey model, measured during 1 hour) is “significant improvement in locomotor activity”. In data set [7] (25 to 100 mg/kg), the “induction of dyskinesia in combination with L-dopa (optimal dose)” value is recorded as “without inducing dyskinesia”. For the same molecule, the “disability score in combination with L-dopa (optimal dose)” value in data set [7] (increasing doses, 25 to 100 mg/kg) is reported as “improvement in the disability score”. In data set [7] (p.o. twice a day for 4 days, score at day 4 over 2 h), the “anti-parkinsonian activity (parkinsonian score), stand-alone treatment” value was “potent anti-parkinsonian activity”. The Kp at 1.5 h in [3] (setting [10]) was determined as 6.5. In addition, in [3] (male, Sprague-Dawley, plasma, oral, 10 mg/kg p.o. vs 1 mg/kg i.v.), the bioavailability amounted to 39%. The AUC(0-inf) in [3] (setting [11]) is 432 ng·h/mL. For the same molecule, in data set [3] (10 mg/kg p.o.), the “Brain AUC inf” value worked out at 2713 ng·h/g, the “Cmax (Brain)” value worked out at 818 ng/G tissue, the “improvement in brain AUC compared to PXT001858” value was determined as 3 fold and the “plasma Cmax relative to PXT001858” value stood at 0.7 fold. The “plasma exposure AUC relative to PXT001858” value in data set [3] (10 mg/kg p.o.) is given as 1.1 fold. The “CaCo-2 efflux (pgp)” value in [8] is “no efflux”. In addition, the fraction unbound in data set [4] is under 0.01. Further, the microsomal CLint in data set [9] was 55 µL/min/mg.

Usually solubility stands for how much of the substance goes into solution per volume. For orientation: AUC(0-inf) means total exposure, with the tail of the curve extrapolated. Usually microsomal CLint stands for the capacity of the preparation to metabolise the compound, expressed as a volume cleared per time. A word on the bioavailability: it is the share of a dose that reaches the circulation, judged against a reference dose that is usually intravenous.
